For assay [1], the target named is Frizzled-8 (Mus musculus) (UniProt Q61091). The assay can be described thus: Binding affinity to immobilized mouse C-terminal Rhinovirus 3C cleavage site-fused 6xHis-tagged Frizzled-8 CRD (Q33 to G173 resideus) transfected with pDisplay_BirA-ER plasmid in HEK293T cells for biotinylation assessed as protein-compound complex formation at 5 to 50 uM by surface plasmon resonance assay. On the technique in general: SPR reads the build-up and loss of mass on a sensor chip optically.

For assay [2], the target named is Frizzled-7 (Homo sapiens) (UniProt O75084). The assay can be described thus: Binding affinity to immobilized human Frizzled-7 CRD (Q33 to G173 resideus) transfected with pDisplay_BirA-ER plasmid in HEK293T cells for biotinylation by surface plasmon resonance assay.
The target of assay [3] is Frizzled-5 (Homo sapiens) (UniProt Q13467). Description: Binding affinity to immobilized human Frizzled-5 CRD (P31 to Y150 resideus) transfected with pDisplay_BirA-ER plasmid in HEK293T cells for biotinylation by surface plasmon resonance assay.
For assay [4], the target named is Frizzled-8 (Mus musculus) (UniProt Q61091). The conditions noted are these: 8 to 64 uM.
Description: Inhibition of full length mouse Frizzled-8 transfected in Frizzled-1/2/7 knockout HEK293T cells using lentiviral expression system cotransfected with Renilla luciferase assessed as reduction in Wnt3a signaling by measuring luciferase activity at 8 to 64 uM measured after 24 hrs by Dual-Glo luciferase reporter assay

Active and inactive are the calls of the source. The rule behind the calls is not given here.

Sequence of Frizzled-8 (Mus musculus) (Q61091 whole entry, the tested form may be a part): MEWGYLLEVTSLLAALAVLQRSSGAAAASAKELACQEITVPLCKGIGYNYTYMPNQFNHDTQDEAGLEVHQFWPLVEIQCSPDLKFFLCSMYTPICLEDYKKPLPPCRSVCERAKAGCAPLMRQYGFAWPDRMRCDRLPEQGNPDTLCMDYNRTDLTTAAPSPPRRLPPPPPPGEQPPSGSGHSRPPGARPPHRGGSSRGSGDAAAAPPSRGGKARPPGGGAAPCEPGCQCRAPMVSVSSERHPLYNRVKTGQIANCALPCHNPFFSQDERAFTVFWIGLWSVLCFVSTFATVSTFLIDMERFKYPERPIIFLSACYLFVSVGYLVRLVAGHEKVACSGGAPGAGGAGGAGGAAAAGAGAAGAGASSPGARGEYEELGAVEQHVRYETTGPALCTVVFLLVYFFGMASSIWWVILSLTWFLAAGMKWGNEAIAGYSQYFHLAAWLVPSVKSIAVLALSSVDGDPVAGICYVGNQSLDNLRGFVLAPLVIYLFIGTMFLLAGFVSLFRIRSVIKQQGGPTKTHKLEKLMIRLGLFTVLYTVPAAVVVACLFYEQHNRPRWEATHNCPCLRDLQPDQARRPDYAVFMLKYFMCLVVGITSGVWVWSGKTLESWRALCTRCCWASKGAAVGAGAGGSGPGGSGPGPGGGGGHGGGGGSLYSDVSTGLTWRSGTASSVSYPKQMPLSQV
Sequence of Frizzled-5 (Homo sapiens) (Q13467 whole entry): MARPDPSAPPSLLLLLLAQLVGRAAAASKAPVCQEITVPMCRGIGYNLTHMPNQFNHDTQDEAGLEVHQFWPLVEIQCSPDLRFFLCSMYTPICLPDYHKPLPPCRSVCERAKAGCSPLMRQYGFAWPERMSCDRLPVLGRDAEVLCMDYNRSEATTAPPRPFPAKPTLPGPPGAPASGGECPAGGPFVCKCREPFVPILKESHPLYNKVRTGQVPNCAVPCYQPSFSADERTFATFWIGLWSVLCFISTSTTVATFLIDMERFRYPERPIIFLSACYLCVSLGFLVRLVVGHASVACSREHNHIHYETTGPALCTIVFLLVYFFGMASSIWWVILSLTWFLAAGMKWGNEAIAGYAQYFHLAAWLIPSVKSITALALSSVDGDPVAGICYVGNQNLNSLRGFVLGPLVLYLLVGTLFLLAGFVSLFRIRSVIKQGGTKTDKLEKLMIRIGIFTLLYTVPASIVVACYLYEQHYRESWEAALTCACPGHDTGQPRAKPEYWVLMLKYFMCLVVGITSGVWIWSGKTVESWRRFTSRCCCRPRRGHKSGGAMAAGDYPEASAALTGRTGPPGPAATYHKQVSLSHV

Regarding `CCN(CC)CCCC(C)Nc1c2ccc(Cl)cc2nc2ccc(OC)cc12` (stereo not given), in assay [1], the result was inactive.

As for `NC(=O)N1c2ccccc2C=Cc2ccccc21`, the result in assay [2] and in assay [3] was inactive. For the same molecule, the result in assay [1] was Active. Besides, the inhibition result in assay [4] was “Active”.

Source of the values: ChEMBL document CHEMBL4402568, “Antiepileptic Drug Carbamazepine Binds to a Novel Pocket on the Wnt Receptor Frizzled-8” (J Med Chem, 2020).
